Values after ≈ are worked out from the molar mass of the structure shown.
Tests used:
[1] = cited from earlier work
[2] = female, CD-1, mouse, in vivo, po, 25 mg/kg
[3] = Cytotoxicity against THP1 macrophage cell lines; type: cell-based; settings: human
in vivo [4] = settings: female, CD-1, mouse, iv, 5 mg/kg; for clearance: i.v. CL
in vivo [5] = settings: female, CD-1, mouse, po, 25 mg/kg
in vitro [6] = settings: human, Caco-2
[7] = In vivo lung PK after oral dosing; settings: female, CD-1, mouse, 25 mg/kg
[8] = female, CD-1, mouse, in vivo, po, 25 mg/kg; remark: listed apart in the source
in vivo [9] = settings: female, CD-1, mouse, po, 25 mg/kg; remark: listed apart in the source
Mtb H37Rv = experiment: In vivo mouse efficacy, established murine TB model; parameters: species or system Balb/c mice; settings: for Mean log lung CFU reduction ± SEM compared to untreated controls / Mean log lung CFU ± SEM / log reduction at 25 mg/kg / log reduction at 100 mg/kg: 5 animals; for Efficacy compared with PA-824, in words: significance at P<0.05; for Dose dependence of efficacy, in words: 25 versus 100 mg/kg oral daily for 4 weeks; for log reduction at 25 mg/kg / log reduction at 100 mg/kg: Mycobacterium tuberculosis, H37RV, po, 672 h, read-out: Mean log lung CFU reduction ± SEM compared to untreated controls
Procedure: In vivo mouse efficacy studies were determined after intranasal infection of Balb/c mice with 10^3 cfu Mtb H37Rv. Treatment was initiated 4 weeks after infection. Compounds were orally administered in CM-2 formulation for 4 weeks daily. Bacterial loads were determined at 2 and 4 weeks post treatment. Statistical analysis was done by a one-way analysis of variance, followed by a multiple comparison analysis of variance by a one-way Tukey test (GraphPad Prism, version 5.02, San Diago, California USA, www.graphpad.com). Differences were considered statistically significant at the 95% level of confidence.

physchem [10] = experiment: physchem
[11] = not given; remark: listed apart in the source
[12] = system: M. tuberculosis (Mtb) (H37Rv, ATCC 27294); experiment: microbe, parasite or virus in culture; type: cell-based; settings: for MIC99: Mycobacterium tuberculosis
[13] = In vivo plasma PK after oral dosing in CM-2 formulation; settings: female, CD-1, mouse, plasma, po, 25 mg/kg
in vitro [14] = settings: mouse, plasma
[15] = In vivo plasma PK after intravenous dosing; settings: mice, i.v. dosing at 5 mg/kg; for half-life: female, CD-1, mouse, plasma, iv, 5 mg/kg, T1/2 (i.v)
physchem [16] = settings: pH 6.8, aqueous buffer, thermodynamic from solid
[17] = 25 mg/kg oral daily for 4 weeks
[18] = 100 mg/kg oral daily for 4 weeks

Row | SMILES | Lung AUC24 [2] [µg·h/g] | Lung Cmax [2] [µg/g] | CC50 [3] [µg/mL] | Vd (in vivo [4]) [L/kg] | clearance (in vivo [4]) [mL/min/kg] | Tmax (in vivo [5]) [h] | Kp (in vivo [5]; Lung to Plasma ratio AUC24) | Kp (in vivo [5]; Lung to Plasma ratio Cmax) | half-life [7] [h] | Plasma free fCmax [8] [µg/mL] | AUC (in vivo [9]) [ng·h/mL] | Cmax (in vivo [9]) [ng/mL] | Tmax (in vivo [9]) [h] | bioavailability (in vivo [9]) [%] | Mean log lung CFU ± SEM (Mtb H37Rv; [17]) [log CFU] | logP (physchem [10]) | PAMPA %FA [11] [%] | PAMPA Log Pe [11] | MIC99 [12] [µg/mL] | half-life [13] [h] | other results
1 | CC[C@H]1OC(=O)[C@H](C)[C@@H](O[C@H]2C[C@@](C)(OC)[C@@H](O)[C@H](C)O2)[C@H](C)[C@@H](O[C@@H]2O[C@H](C)C[C@H](N(C)C)[C@H]2O)[C@](C)(O)C[C@@H](C)CN(C)[C@H](C)[C@@H](O)[C@]1(C)O [Azithromycin] |  |  |  |  |  |  |  |  |  |  |  |  |  |  |  |  |  |  |  |  | AUC lung/serum [1]: 21; Vss [1]: 33 L/kg
2 | O=[N+]([O-])c1cn2c(n1)OC[C@@H](NCc1ccc(OC(F)(F)F)c(Cl)c1)C2 [NI-135] | 18.6 | 5.5 | > 10 | 4.2 | 41 | 0.5 | 3.9 | 4.6 | 3.3 | 0.1 | 4800 | 1200 | 0.5 | 51 | 4.76±0.07 | 3 | 90 | –4.5 cm/sec | 0.03 (≈ 0.0764 µM) | 2.9 | Absolute lung concentrations, fold lower than PA-824 [2]: 2.5-7.5 fold; Papp A→B (in vitro [6]): 23.4 ×10⁻⁶ cm/s; Papp B→A (in vitro [6]): 15.3 ×10⁻⁶ cm/s; efflux ratio (in vitro [6]): 0.6; Mean log lung CFU reduction ± SEM compared to untreated controls (Mtb H37Rv; [17]): 1.48 ± 0.07 log CFU; Efficacy compared with PA-824, in words (Mtb H37Rv; [17]): comparable efficacy to PA-824; Mean log lung CFU ± SEM (Mtb H37Rv; [18]): 4.36±0.07 log CFU; Efficacy compared with PA-824, in words (Mtb H37Rv; [18]): comparable efficacy to PA-824; Dose dependence of efficacy, in words (Mtb H37Rv): dose dependent increase in efficacy; log reduction at 25 mg/kg (Mtb H37Rv; [17]): 1.48 ± 0.07; log reduction at 100 mg/kg (Mtb H37Rv; [18]): 1.88 ± 0.07; Solubility pH 6.8: 77.0 µg/mL; In vitro potency relative to PA-824 [12]: 10 times; fraction unbound (in vitro [14]): 0.085; half-life [15]: 4 h
3 | O=[N+]([O-])c1cn2c(n1)OC[C@@H](NCc1ccc(OC(F)(F)F)c(F)c1)C2 [NI-136] | 39.8 | 7.2 | > 10 | 1.8 | 25.1 | 0.5 | 3.7 | 3.6 | 2.5 | 0.3 | 10700 | 2000 | 0.5 | 64 | 4.93±0.06 | 2.6 | 83 | –4.7 cm/sec | 0.03 (≈ 0.0797 µM) | 2 | Absolute lung concentrations, fold lower than PA-824 [2]: 2.5-7.5 fold; Papp A→B (in vitro [6]): 15.4 ×10⁻⁶ cm/s; Papp B→A (in vitro [6]): 12.6 ×10⁻⁶ cm/s; efflux ratio (in vitro [6]): 0.8; Mean log lung CFU reduction ± SEM compared to untreated controls (Mtb H37Rv; [17]): 1.31 ± 0.06 log CFU; Efficacy compared with PA-824, in words (Mtb H37Rv; [17]): comparable efficacy to PA-824; Mean log lung CFU ± SEM (Mtb H37Rv; [18]): 4.18±0.17 log CFU; Efficacy compared with PA-824, in words (Mtb H37Rv; [18]): comparable efficacy to PA-824; Dose dependence of efficacy, in words (Mtb H37Rv): dose dependent increase in efficacy; log reduction at 25 mg/kg (Mtb H37Rv; [17]): 1.31 ± 0.06; log reduction at 100 mg/kg (Mtb H37Rv; [18]): 2.06 ± 0.17; Solubility pH 6.8: 43.0 µg/mL; In vitro potency relative to PA-824 [12]: 10 times; fraction unbound (in vitro [14]): 0.173; T1/2 (i.v) [15]: 1.3 h
4 | O=[N+]([O-])c1cn2c(n1)OC[C@@H](NCc1ccc(OC(F)(F)F)c(O)c1)C2 [NI-147] | 2.6 | 0.5 |  | 0.4 | 70.8 | 0.1 |  |  |  |  | 20 | 40 | 0.1 | 0.3 |  | 2.4 | 43 | –5.2 cm/sec | 0.03 (≈ 0.0802 µM) | 0.2 | Solubility pH 6.8: 56.0 µg/mL; half-life [15]: 0.3 h
5 | CC[C@H]1Oc2nc([N+](=O)[O-])cn2C[C@@H]1NCc1ccc(OC(F)(F)F)cc1 [NI-182] | 73.2 | 11.4 | > 10 | 3 | 15.2 | 0.5 | 3.3 | 3.3 | 1.9 | 0.3 | 22500 | 3500 | 0.5 | 82 | 4.84±0.14 | 3.05 | 99 | –3.8 cm/sec | 0.02 (≈ 0.0518 µM) | 2 | solubility (physchem [16]): 32 µg/mL (≈ 82.8 µM); Papp A→B (in vitro [6]): 18.3 ×10⁻⁶ cm/s; Papp B→A (in vitro [6]): 13.9 ×10⁻⁶ cm/s; efflux ratio (in vitro [6]): 0.8; Efficacy compared with PA-824, in words (Mtb H37Rv; [17]): comparable efficacy to PA-824; Mean log lung CFU ± SEM (Mtb H37Rv; [18]): 4.81±0.18 log CFU; Efficacy compared with PA-824, in words (Mtb H37Rv; [18]): significantly (P<0.05) less efficacious than PA-824; Dose dependence of efficacy, in words (Mtb H37Rv): no dose-dependent increase in bactericidal activity; log reduction at 25 mg/kg (Mtb H37Rv; [17]): 1.23 to 1.56; log reduction at 100 mg/kg (Mtb H37Rv; [18]): 1.26 ± 0.18; fraction unbound (in vitro [14]): 0.087; half-life [15]: 2.8 h
6 | CC[C@H]1Oc2nc([N+](=O)[O-])cn2C[C@@H]1NCc1ccc(-c2ccc(OC(F)(F)F)cc2)cc1 [NI-297] | 233.4 | 16.3 | > 10 | 2.6 | 5 | 8 | 2.4 | 2.7 | 4.6 | 0.1 | 99100 | 6000 | 8 | 100 | 4.51±0.11 | 6 | 97 | –4.1 cm/sec | 0.02 (≈ 0.0432 µM) | 4.9 | solubility (physchem [16]): < 2 µg/mL; Efficacy compared with PA-824, in words (Mtb H37Rv; [17]): comparable efficacy to PA-824; log reduction at 25 mg/kg (Mtb H37Rv; [17]): 1.23 to 1.56; fraction unbound (in vitro [14]): 0.018; half-life [15]: 6.7 h
7 | COc1nc2ccc(Br)cc2cc1[C@@H](c1ccccc1)[C@@](O)(CCN(C)C)c1cccc2ccccc12 [TMC207] |  |  |  |  |  |  |  |  |  |  |  |  |  |  |  |  |  |  |  |  | AUC L/P ratio ([1]; lungs): 22
